Data: ChEMBL document CHEMBL1137844, “Design, synthesis and structure-activity relationship of novel RXR-selective modulators” (Bioorg Med Chem Lett, 2004)

Key:
[1] = target: T1, Retinoic acid receptor RXR-alpha (Homo sapiens, UniProt P19793); test: Antagonist activity for Retinoic X receptor alpha in CV1 cells; format: functional, cell-based, CV-1
T1 sequence (P19793 whole entry): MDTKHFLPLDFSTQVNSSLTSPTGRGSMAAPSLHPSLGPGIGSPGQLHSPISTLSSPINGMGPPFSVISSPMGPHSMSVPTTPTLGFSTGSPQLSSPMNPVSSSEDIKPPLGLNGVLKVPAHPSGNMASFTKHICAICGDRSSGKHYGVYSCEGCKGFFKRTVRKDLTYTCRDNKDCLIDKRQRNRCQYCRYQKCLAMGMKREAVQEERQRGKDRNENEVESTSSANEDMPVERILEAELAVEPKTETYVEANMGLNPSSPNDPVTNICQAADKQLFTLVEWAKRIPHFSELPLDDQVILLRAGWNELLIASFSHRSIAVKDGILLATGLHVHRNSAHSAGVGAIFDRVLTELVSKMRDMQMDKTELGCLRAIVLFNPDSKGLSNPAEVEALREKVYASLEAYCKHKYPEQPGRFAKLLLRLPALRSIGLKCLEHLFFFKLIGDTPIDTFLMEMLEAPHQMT

[2] = target: T2, Retinoic acid receptor RXR-gamma (Homo sapiens, UniProt P48443); test: Displacement of [3H]9-cis-RA from retinoic X receptor gamma
T2 sequence (P48443 whole entry): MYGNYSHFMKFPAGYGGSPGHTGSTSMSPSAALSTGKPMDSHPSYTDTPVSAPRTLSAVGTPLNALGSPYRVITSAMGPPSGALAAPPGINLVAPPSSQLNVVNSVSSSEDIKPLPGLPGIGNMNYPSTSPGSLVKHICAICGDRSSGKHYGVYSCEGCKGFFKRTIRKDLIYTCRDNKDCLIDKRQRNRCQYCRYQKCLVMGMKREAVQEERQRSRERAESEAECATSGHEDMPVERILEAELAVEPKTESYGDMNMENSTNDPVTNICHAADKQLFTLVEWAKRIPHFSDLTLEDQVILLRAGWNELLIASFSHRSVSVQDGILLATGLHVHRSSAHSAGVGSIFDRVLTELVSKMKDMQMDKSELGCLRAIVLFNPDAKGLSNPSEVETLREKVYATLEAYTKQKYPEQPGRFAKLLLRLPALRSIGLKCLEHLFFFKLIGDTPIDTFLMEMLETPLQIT

[3] = target: T3, Retinoic acid receptor alpha (Homo sapiens, UniProt P10276); test: Binding affinity against retinoic acid receptor alpha by [3H]ATRA displacement.
T3 sequence (P10276 whole entry): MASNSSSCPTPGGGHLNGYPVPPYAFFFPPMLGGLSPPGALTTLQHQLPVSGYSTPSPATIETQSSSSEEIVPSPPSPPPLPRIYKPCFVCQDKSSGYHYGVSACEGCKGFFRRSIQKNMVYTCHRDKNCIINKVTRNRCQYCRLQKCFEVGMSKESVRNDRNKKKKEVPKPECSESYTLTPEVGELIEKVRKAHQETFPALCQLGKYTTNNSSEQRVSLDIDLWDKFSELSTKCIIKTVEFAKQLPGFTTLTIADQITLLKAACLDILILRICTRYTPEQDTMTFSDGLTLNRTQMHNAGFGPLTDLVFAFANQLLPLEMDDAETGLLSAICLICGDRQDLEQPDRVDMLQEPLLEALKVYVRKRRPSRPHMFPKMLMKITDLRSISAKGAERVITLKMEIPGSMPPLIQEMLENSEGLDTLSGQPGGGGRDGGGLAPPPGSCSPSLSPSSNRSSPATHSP

[4] = target: T4, Retinoic acid receptor RXR-beta (Homo sapiens, UniProt P28702); test: Displacement of [3H]9-cis-RA from Retinoic X receptor beta
T4 sequence (P28702 whole entry): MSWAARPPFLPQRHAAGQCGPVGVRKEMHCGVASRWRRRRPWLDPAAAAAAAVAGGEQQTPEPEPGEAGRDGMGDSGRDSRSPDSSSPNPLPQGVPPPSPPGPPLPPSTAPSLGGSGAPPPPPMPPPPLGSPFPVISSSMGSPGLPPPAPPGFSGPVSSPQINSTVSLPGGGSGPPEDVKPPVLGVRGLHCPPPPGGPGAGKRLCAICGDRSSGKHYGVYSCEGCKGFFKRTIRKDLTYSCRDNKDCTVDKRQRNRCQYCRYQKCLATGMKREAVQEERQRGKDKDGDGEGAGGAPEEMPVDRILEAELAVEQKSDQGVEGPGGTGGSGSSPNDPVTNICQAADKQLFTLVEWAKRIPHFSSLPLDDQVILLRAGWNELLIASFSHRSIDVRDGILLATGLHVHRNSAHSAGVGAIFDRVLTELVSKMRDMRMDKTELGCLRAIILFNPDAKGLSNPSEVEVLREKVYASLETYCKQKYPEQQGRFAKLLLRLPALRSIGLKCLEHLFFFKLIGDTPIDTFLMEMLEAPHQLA

[5] = target: T1, Retinoic acid receptor RXR-alpha; test: Binding affinity against Retinoic acid receptor RXR-alpha by [3H]9-cis-RA displacement.
[6] = target: T1, Retinoic acid receptor RXR-alpha; test: Transcriptional activation in CV-1 cells expressing Retinoid X receptor alpha; format: cell-based

Structure (SMILES) | IC50 [1] | Ki [2] | Ki [3] | Ki [4] | Ki [5] | EC50 [6]
CCOc1c(-c2cccc3sc(/C(C)=C/C(=O)O)cc23)cc(C(C)C)cc1C(C)C | – | 12 nM | > 10000 nM | 11 nM | 6 nM | 20 nM
C/C(=C\C(=O)O)c1cc2c(-c3cc(C(C)(C)C)cc(C(C)(C)C)c3OCCC(F)F)cccc2s1 | 16 nM | 37 nM | > 10000 nM | 12 nM | 7 nM | –
C/C(=C\C(=O)O)c1cc2c(-c3cc(C(C)(C)C)cc(C(C)(C)C)c3OCC(F)(F)F)cccc2s1 | 14 nM | 20 nM | > 10000 nM | 10 nM | 3 nM | –
C/C(=C\C(=O)O)c1cc2cccc(-c3cc(C(C)C)cc(C(C)C)c3OCCCF)c2o1 | 194 nM | – | > 10000 nM | – | 47 nM | –
C/C(=C\C(=O)O)c1cc2c(-c3cc(C(C)(C)C)cc(C(C)(C)C)c3OCC(F)F)cccc2s1 | 24 nM | 20 nM | 8360 nM | 55 nM | – | –
Cc1cc2c(cc1C1(c3ccc(C(=O)O)cn3)CC1)C(C)(C)CCC2(C)C | – | – | – | 7.5 nM | – | –
C/C(=C\C(=O)O)c1cc2c(-c3cc(C(C)(C)C)cc(C(C)(C)C)c3OCCCF)cccc2s1 | 8 nM | 21 nM | 7280 nM | 10 nM | 3 nM | –
CCOc1c(-c2cccc3cc(/C(C)=C/C(=O)O)sc23)cc(C(C)C)cc1C(C)C | – | – | 6020 nM | – | 271 nM | 390 nM
C/C(=C\C(=O)O)c1cc2c(-c3cc(C(C)(C)C)cc(C(C)(C)C)c3C)cccc2s1 | – | 54 nM | 1790 nM | 33 nM | 7 nM | 39 nM
CCCOc1c(-c2cccc3sc(/C(C)=C/C(=O)O)cc23)cc(C(C)C)cc1C(C)C | 16 nM | 20 nM | 6910 nM | 15 nM | – | –
CCCCCCCOc1c(-c2cccc3sc(/C(C)=C/C(=O)O)cc23)cc(C(C)(C)C)cc1C(C)(C)C | 83 nM | 28 nM | > 10000 nM | 12 nM | 5 nM | –
C/C(=C/C=C/C(C)=C/C(=O)O)c1cc(C(C)(C)C)cc(C(C)(C)C)c1OCC(F)F | – | 39 nM | > 1000 nM | 18 nM | – | –

Continued, values first:

IC50 [1] | Ki [2] | Ki [3] | Ki [4] | Ki [5] | EC50 [6] | Structure (SMILES)
300 nM | 500 nM | > 10000 nM | 261 nM | 161 nM | – | C/C(=C\C(=O)O)c1cc2cccc(-c3cc(C(C)C)cc(C(C)C)c3OCC(F)F)c2o1
– | – | > 10000 nM | – | – | 74 nM | CCOc1c(-c2cccc3cc(/C(C)=C/C(=O)O)oc23)cc(C(C)C)cc1C(C)C
11 nM | 28 nM | > 10000 nM | 64.5 nM | 16 nM | – | CCCCOc1c(-c2cccc3cc(/C(C)=C(\F)C(=O)O)oc23)cc(C(C)C)cc1C(C)C
347 nM | 334 nM | – | 142 nM | 198 nM | – | C/C(=C\C(=O)O)c1cc2cccc(-c3cc(C(C)C)cc(C(C)C)c3OCC(F)(F)F)c2o1
22 nM | 49 nM | > 10000 nM | 4 nM | 101 nM | – | C/C(=C(/F)C(=O)O)c1cc2cccc(-c3cc(C(C)C)cc(C(C)C)c3OCC(F)F)c2o1
128 nM | – | 8500 nM | – | 44 nM | – | CCCOc1c(-c2cccc3cc(/C(C)=C/C(=O)O)oc23)cc(C(C)C)cc1C(C)C
